Laboratory results: patent publication US11596639B2, “Substituted indole Mcl-1 inhibitors” (Vanderbilt University, priority 2016, dated 2023)

Target: Mcl-1 (Homo sapiens (Human), UniProt Q07820)
Assay: Fluorescence polarization anisotropy (FPA) competition assay, FITC-Bak or FITC-Bim BH3 peptide
Format: binding
Conditions: read-out: Ki for Inhibition of Mcl-1 by FPA assay

Chain of Mcl-1 (Q07820 172-327): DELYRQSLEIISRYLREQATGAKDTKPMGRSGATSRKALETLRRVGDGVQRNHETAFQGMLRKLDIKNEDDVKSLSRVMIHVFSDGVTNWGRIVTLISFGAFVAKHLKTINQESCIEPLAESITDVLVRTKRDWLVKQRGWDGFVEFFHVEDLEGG

**Q.** CCn1ncc2c(C(=O)O)cc(N3C[C@@H](C)n4c(c(CCCOc5cc(C)c(Cl)c(C)c5)c5ccc(Cl)c(-c6c(C)nn(C)c6C)c54)C3=O)cc21 [Example 87, (R)-6-(7-chloro-10-(3-(4-chloro-3,5-dimethylphenoxy)propyl)-4-methyl-1-oxo-6-(1,3,5-trimethyl-1H-pyrazol-4-yl)-3,4-dihydropyrazino[1,2-a]indol-2(1H)-yl)-1-ethyl-1H-indazole-4-carboxylic acid] was tested. Which Ki did it give?
**A.** < 1 nM

**Q.** For Cc1cc(CCCCc2c(C(=O)N3CCN(c4ccnc(C(=O)O)c4)CC3)[nH]c3c(-c4c(C)nn(C)c4C)c(Cl)ccc23)cc(C)c1Cl [Example 738, 4-(4-(6-Chloro-3-(4-(4-chloro-3,5-dimethylphenyl)butyl)-7-(1,3,5-trimethyl-1H-pyrazol-4-yl)-1H-indole-2-carbonyl)piperazin-1-yl)picolinic acid], which Ki is on record?
**A.** 200 nM

**Q.** Which Ki does the source give for Cc1cc(OCCCc2c3n(c4c(-c5c(C)nn(C)c5C)c(Cl)ccc24)[C@H](C)CN(c2ccc(OCC4CCN(C)C4)c4c2cc(C(=O)O)n4C)C3=O)cc(C)c1Cl (stereo partly shown) [Example 319, 4-((M, R)-7-Chloro-10-(3-(4-chloro-3,5-dimethylphenoxy)propyl)-4-methyl-1-oxo-6-(1,3,5-trimethyl-1H-pyrazol-4-yl)-3,4-dihydropyrazino[1,2-a]indol-2(1H)-yl)-1-methyl-7-((1-methylpyrrolidin-3-yl)methoxy)-1H-indole-2-carboxylic acid] here?
**A.** 3.2 nM

**Q.** With Cc1cc(OCCCc2c3n(c4c(-c5c(C)nn(C)c5C)c(Cl)ccc24)[C@H](C)CN(c2ccc4nc(C(=O)O)cn4c2)C3=O)cc(C)c1Cl [Example 139, (R)-6-(7-chloro-10-(3-(4-chloro-3,5-dimethylphenoxy)propyl)-4-methyl-1-oxo-6-(1,3,5-trimethyl-1H-pyrazol-4-yl)-3,4-dihydropyrazino[1,2-a]indol-2(1H)-yl)imidazo[1,2-a]pyridine-2-carboxylic acid] as the compound, how does the Ki read?
**A.** 1.1 nM

**Q.** How did the Ki turn out when Cc1cc(OCCCc2c3n(c4c(-c5c(C)nn(C)c5C)c(Cl)ccc24)CCCN(Cc2cc(C(=O)O)cc(N4CCN(C(=O)N(C)C)CC4)n2)C3=O)cc(C)c1Cl [Example 34, 2-((8-Chloro-11-(3-(4-chloro-3,5-dimethylphenoxy)propyl)-1-oxo-7-(1,3,5-trimethyl-1H-pyrazol-4-yl)-4,5-dihydro-1H-[1,4]diazepino[1,2-a]indol-2(3H)-yl)methyl)-6-(4-(dimethylcarbamoyl)piperazin-1-yl)isonicotinic acid] was run?
**A.** 12 nM

**Q.** Which Ki does the source give for Cc1cc(OCCCc2c3n(c4c(-c5c(C)cccc5C)c(Cl)ccc24)CCCNC3=O)cc(C)c1Cl [Example 86, 8-Chloro-11-(3-(4-chloro-3,5-dimethylphenoxy)propyl)-7-(2,6-dimethylphenyl)-2,3,4,5-tetrahydro-1H-[1,4]diazepino[1,2-a]indol-1-one] here?
**A.** 47 nM

**Q.** How did the Ki turn out when Cc1cc(OCCCc2c(C(=O)N(C)c3cccc(C(=O)O)c3)n(CCN3CCOCC3)c3c(-c4c(C)nn(C)c4C)c(Cl)ccc23)cc(C)c1Cl [Example 730, 3-[[6-chloro-3-[3-(4-chloro-3,5-dimethyl-phenoxy)propyl]-1-(2-morpholinoethyl)-7-(1,3,5-trimethylpyrazol-4-yl)indole-2-carbonyl]-methyl-amino]benzoic acid] was run?
**A.** 20 nM

**Q.** With Cc1cc(OCCCc2c3n(c4c(-c5c(C)nn(C)c5C)c(Cl)ccc24)[C@H](C)CN(c2cccc4cc(C(=O)O)n(CC5CCN(C)C5)c24)C3=O)cc(C)c1Cl (stereo partly drawn) [Example 320, 7-((R)-7-Chloro-10-(3-(4-chloro-3,5-dimethylphenoxy)propyl)-4-methyl-1-oxo-6-(1,3,5-trimethyl-1H-pyrazol-4-yl)-3,4-dihydropyrazino[1,2-a]indol-2(1H)-yl)-1-((1-methylpyrrolidin-3-yl)methyl)-1H-indole-2-carboxylic acid] as the compound, how does the Ki read?
**A.** 2.7 nM

**Q.** With Cc1cc(OCCCc2c3n(c4c(-c5c(C)nn(C)c5C)c(Cl)ccc24)CCCN(c2cc4c(c(C(=O)O)c2)OCC4)C3=O)cc(C)c1Cl [Example 18, 5-[8-chloro-11-[3-(4-chloro-3,5-dimethyl-phenoxy)propyl]-1-oxo-7-(1,3,5-trimethylpyrazol-4-yl)-4,5-dihydro-3H-[1,4]diazepino[1,2-a]indol-2-yl]-2,3-dihydrobenzofuran-7-carboxylic acid] as the compound, how does the Ki read?
**A.** 5.8 nM

**Q.** Which Ki does the source give for Cc1cc(OCCCc2c3n(c4c(-c5c(C)nn(CC(=O)O)c5C)c(Cl)ccc24)CCCN(c2ccccc2)C3=O)cc(C)c1Cl [Example 136, 2-(4-(8-Chloro-11-(3-(4-chloro-3,5-dimethylphenoxy)propyl)-1-oxo-2-phenyl-2,3,4,5-tetrahydro-1H-[1,4]diazepino[1,2-a]indol-7-yl)-3,5-dimethyl-1H-pyrazol-1-yl)acetic acid] here?
**A.** < 1 nM

**Q.** How did the Ki turn out when Cc1cc(OCCCc2c3n(c4c(-c5c(C)nn(C)c5C)c(Cl)ccc24)CCCN(Cc2cc(C(=O)O)cc(N4CCN(C(=O)OC(C)(C)C)CC4)n2)C3=O)cc(C)c1Cl [Example 8, 2-(4-(Tert-butoxycarbonyl)piperazin-1-yl)-6-((8-chloro-11-(3-(4-chloro-3,5-dimethylphenoxy)propyl)-1-oxo-7-(1,3,5-trimethyl-1H-pyrazol-4-yl)-4,5-dihydro-1H-[1,4]diazepino[1,2-a]indol-2(3H)-yl)methyl)isonicotinic acid] was run?
**A.** 27 nM

**Q.** For Cc1cc(OCCCc2c3n(c4c(-c5c(C)nn(C)c5C)c(Cl)ccc24)[C@H](C)CN(c2cccc4c2cc(C(N)=O)n4C)C3=O)cc(C)c1Cl [Example 266, 4-[(4R)-7-chloro-10-[3-(4-chloro-3,5-dimethyl-phenoxy)propyl]-4-methyl-1-oxo-6-(1,3,5-trimethylpyrazol-4-yl)-3,4-dihydropyrazino[1,2-a]indol-2-yl]-1-methyl-indole-2-carboxamide], which Ki is on record?
**A.** 9.2 nM

**Q.** With Cc1cc(CCCCc2c(C(=O)N3CCN(c4ccnc(C(=O)O)c4)CC3)n(Cc3cccnc3)c3c(-c4c(C)nn(C)c4C)c(Cl)ccc23)cc(C)c1Cl [Example 742, 4-(4-(6-Chloro-3-(4-(4-chloro-3,5-dimethylphenyl)butyl)-1-(pyridin-3-ylmethyl)-7-(1,3,5-trimethyl-1H-pyrazol-4-yl)-1H-indole-2-carbonyl)piperazin-1-yl)picolinic acid] as the compound, how does the Ki read?
**A.** > 200 nM

**Q.** How did the Ki turn out when Cc1cc(OCCCc2c(C(=O)NCc3cccc(C(=O)O)c3)[nH]c3c(-c4c(C)ncnc4C)c(Cl)ccc23)cc(C)c1Cl [Example 748, 3-[[[6-Chloro-3-[3-(4-chloro-3,5-dimethyl-phenoxy)propyl]-7-(4,6-dimethylpyrimidin-5-yl)-1H-indole-2-carbonyl]amino]methyl]benzoic acid] was run?
**A.** 6.3 nM

**Q.** How did the Ki turn out when Cc1cc(OCCCc2c3n(c4c(-c5c(C)nn(C)c5C)c(Cl)ccc24)[C@H](C)CN(c2cn(C)c4ccc(C(F)(F)F)cc24)C3=O)cc(C)c1Cl (single isomer, unassigned) [Example 193] was run?
**A.** 3.9 nM

**Q.** For COC(=O)c1cc2c(c(N3CCCn4c(c(CCCOc5cc(C)c(Cl)c(C)c5)c5ccc(Cl)c(-c6c(C)nn(C)c6C)c54)C3=O)c1)OCCO2 [Example 60, Methyl 8-(8-chloro-11-(3-(4-chloro-3,5-dimethylphenoxy)propyl)-1-oxo-7-(1,3,5-trimethyl-1H-pyrazol-4-yl)-4,5-dihydro-1H-[1,4]diazepino[1,2-a]indol-2(3H)-yl)-2,3-dihydrobenzo[b][1,4]dioxine-6-carboxylate], which Ki is on record?
**A.** < 1 nM

**Q.** For COc1ccc(N2C[C@@H](C)n3c(c(CCCOc4cc(C)c(Cl)c(C)c4)c4ccc(Cl)c(-c5c(C)nn(C)c5C)c43)C2=O)c2c1c(C)c(C(N)=O)n2C [Example 411, (R)-7-(7-Chloro-10-(3-(4-chloro-3,5-dimethylphenoxy)propyl)-4-methyl-1-oxo-6-(1,3,5-trimethyl-1H-pyrazol-4-yl)-3,4-dihydropyrazino[1,2-a]indol-2(1H)-yl)-4-methoxy-1,3-dimethyl-1H-indole-2-carboxamide], which Ki is on record?
**A.** 5.6 nM

**Q.** For COC(=O)c1cn(C)c2c(N3C[C@@H](C)n4c(c(CCCOc5cc(C)c(Cl)c(C)c5)c5ccc(Cl)c(-c6c(C)nn(C)c6C)c54)C3=O)cccc12 [Example 205, Methyl (R)-7-(7-chloro-10-(3-(4-chloro-3,5-dimethylphenoxy)propyl)-4-methyl-1-oxo-6-(1,3,5-trimethyl-1H-pyrazol-4-yl)-3,4-dihydropyrazino[1,2-a]indol-2(1H)-yl)-1-methyl-1H-indole-3-carboxylate], which Ki is on record?
**A.** 2.4 nM

**Q.** For Cc1cc(CCCCc2c(C(=O)N3CCN(c4cncc(C(=O)O)c4)CC3)[nH]c3c(-c4c(C)nn(C)c4C)c(Cl)ccc23)cc(C)c1Cl [Example 740, 5-(4-(6-Chloro-3-(4-(4-chloro-3,5-dimethylphenyl)butyl)-7-(1,3,5-trimethyl-1H-pyrazol-4-yl)-1H-indole-2-carbonyl)piperazin-1-yl)nicotinic acid], which Ki is on record?
**A.** 85 nM

**Q.** How did the Ki turn out when Cc1cc(OCCCc2c3n(c4c(-c5c(C)nn(C)c5C)c(Cl)ccc24)[C@H](C)CN(c2cn(C)c4ccc(-c5nnc(C6CCCCC6)o5)cc24)C3=O)cc(C)c1Cl [Example 413, (R)-7-Chloro-10-(3-(4-chloro-3,5-dimethylphenoxy)propyl)-2-(5-(5-cyclohexyl-1,3,4-oxadiazol-2-yl)-1-methyl-1H-indol-3-yl)-4-methyl-6-(1,3,5-trimethyl-1H-pyrazol-4-yl)-3,4-dihydropyrazino[1,2-a]indol-1(2H)-one] was run?
**A.** 3.5 nM

**Q.** With Cc1cc(CCCCc2c(C(=O)N3CCN(c4ccc(C(=O)O)nc4)CC3)n(Cc3cccnc3)c3c(-c4c(C)nn(C)c4C)c(Cl)ccc23)cc(C)c1Cl [Example 737, 5-(4-(6-Chloro-3-(4-(4-chloro-3,5-dimethylphenyl)butyl)-1-(pyridin-3-ylmethyl)-7-(1,3,5-trimethyl-1H-pyrazol-4-yl)-1H-indole-2-carbonyl)piperazin-1-yl)picolinic acid] as the compound, how does the Ki read?
**A.** 140 nM

**Q.** Cc1ccc(S(=O)(=O)N2CCN(c3cc(C(=O)O)cc(CN4CCCn5c(c(CCCOc6cc(C)c(Cl)c(C)c6)c6ccc(Cl)c(-c7c(C)nn(C)c7C)c65)C4=O)n3)CC2)o1 [Example 27, 2-((8-chloro-11-(3-(4-chloro-3,5-dimethylphenoxy)propyl)-1-oxo-7-(1,3,5-trimethyl-1H-pyrazol-4-yl)-4,5-dihydro-1H-[1,4]diazepino[1,2-a]indol-2(3H)-yl)methyl)-6-(4-((5-methylfuran-2-yl)sulfonyl)piperazin-1-yl)isonicotinic acid] was tested. Which Ki did it give?
**A.** 39 nM
